Measured values as given in patent publication US20060069132A1, “Azolecarboxamide herbicides” (priority 2004, published 2006).

Key:
wild oat = assay: Test B postemergence herbicide test; format: in vivo, Avena fatua; settings: scale 0 (no effect) to 100 (complete control); for Plant response rating, Oat, Wild: Postemergence, 500 g ai/ha, visual rating after 13 to 15 days; for Oat, Wild plant response rating: postemergence, 125 g ai/ha, visual rating
Procedure, shortened: (§1)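 After treating 2-leaf paddy plants or 2–18 cm postemergence plants (1 to 4 leaves) with formulated chemical, researchers kept them in a greenhouse for 13–15 days. Effects were judged visually versus controls: 0 indicates none, 100 total control.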

pigweed = assay: Test B pre-/postemergence herbicide test; format: in vivo, Amaranthus retroflexus
Procedure, shortened: (§2)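 Plants compared with untreated controls 13–15 days post-treatment and given a visual 0–100 injury score. Applications: preemergence to seeds; postemergence at 1- to 4-leaf (2–18 cm); paddy species flooded, 2-leaf stage. Vehicle non-phytotoxic, surfactant included.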

Surinam grass = assay: Test B pre-/postemergence herbicide test; format: in vivo, Urochloa decumbens
Procedure, shortened: as §2

giant foxtail = assay: Test B pre-/postemergence herbicide test; format: in vivo, Setaria faberi
Procedure, shortened: as §2

velvetleaf = assay: Test B pre-/postemergence herbicide test; format: in vivo, Abutilon theophrasti
Procedure, shortened: as §2

rice = assay: Test B flooded paddy test; format: in vivo, Oryza sativa; settings: 1000 g ai/ha, visual rating, scale 0 to 100 (0 no effect, 100 complete control), 13 to 15 days
Procedure, shortened: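 Formulated test chemicals went onto postemergence plants measuring 2 to 18 cm, at one to four leaves. For the paddy assay, species had reached two leaves. Scoring took place 13–15 days later by eye, relative to untreated plants, using 0 for no effect up to 100 for full control.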

large crabgrass = assay: Test B pre-/postemergence herbicide test; format: in vivo, Digitaria sanguinalis
Procedure, shortened: as §2

lambsquarters = assay: Test B pre-/postemergence herbicide test; format: in vivo, Chenopodium album
Procedure, shortened: as §2

[1] = system: small flower umbrella sedge; assay: Test B flooded paddy test; format: in vivo, Cyperus difformis; settings: 1000 g ai/ha, visual rating, scale 0 to 100 (0 no effect, 100 complete control), 13 to 15 days
Procedure, shortened: as §1

morningglory = assay: Test B pre-/postemergence herbicide test; format: in vivo, Ipomoea coccinea
Procedure, shortened: (§3)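 Flooded paddy rice and barnyardgrass were treated at the 2-leaf stage; upland plantings received compound either on sown seed or on 1- to 4-leaf seedlings. All were kept 13–15 days in a greenhouse and scored visually, 0–100, relative to untreated plants.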

barnyardgrass [2] = assay: Test B flooded paddy test; format: in vivo, Echinochloa crus-galli; settings: 1000 g ai/ha, visual rating, scale 0 to 100 (0 no effect, 100 complete control), 13 to 15 days
Procedure, shortened: as §1

barnyardgrass [3] = assay: Test B pre-/postemergence herbicide test; format: in vivo, Echinochloa crus-galli
Procedure, shortened: as §3

cocklebur = assay: Test B pre-/postemergence herbicide test; format: in vivo, Xanthium strumarium
Procedure, shortened: as §3

wheat = assay: Test B postemergence herbicide test; format: in vivo, Triticum aestivum; set-up: key to Wheat plant response rating: 0 = no effect, 100 = complete control; settings: scale 0 (no effect) to 100 (complete control); for Plant response rating, Wheat: Postemergence, 500 g ai/ha, visual rating after 13 to 15 days; for Wheat plant response rating: postemergence, 125 g ai/ha, visual rating
Procedure, shortened: as §1

corn = assay: Test B pre-/postemergence herbicide test; format: in vivo, Zea mays
Procedure, shortened: as §2

[4] = Postemergence, 500 g ai/ha, visual rating after 13 to 15 days, scale 0 (no effect) to 100 (complete control)
[5] = Preemergence, 500 g ai/ha, scale 0 to 100
[6] = postemergence, 125 g ai/ha, visual rating, scale 0 (no effect) to 100 (complete control)
[7] = preemergence, 125 g ai/ha, 0 to 100 scale, 0 is no effect, 100 is complete control

CCNC(=O)c1cc(NC(=O)c2cc(C(C)(C)C)nn2CC)ccc1F [Compound 58]
Plant response rating, Oat, Wild (wild oat): 30
Oat, Wild plant response rating (wild oat): 20
Plant response rating, Pigweed (pigweed; [4]): 90
Pigweed plant response rating (pigweed; [5]): 100
Pigweed plant response rating (pigweed; [6]): 60
Plant response rating, Pigweed (pigweed; [7]): 100
Plant response rating, Surinam Grass (Surinam grass; [4]): 30
Surinam Grass plant response rating (Surinam grass; [5]): 60
Surinam Grass plant response rating (Surinam grass; [6]): 10
Plant response rating, Surinam Grass (Surinam grass; [7]): 30
Plant response rating, Foxtail, Giant (giant foxtail; [4]): 20
Foxtail, Giant plant response rating (giant foxtail; [5]): 100
Foxtail, Giant plant response rating (giant foxtail; [6]): 20
Plant response rating, Foxtail, Giant (giant foxtail; [7]): 100
Plant response rating, Velvetleaf (velvetleaf; [4]): 70
Velvetleaf plant response rating (velvetleaf; [5]): 100
Velvetleaf plant response rating (velvetleaf; [6]): 50
Plant response rating, Velvetleaf (velvetleaf; [7]): 60
Rice plant response rating (rice): 60
Plant response rating, Crabgrass, Large (large crabgrass; [4]): 30
Crabgrass, Large plant response rating (large crabgrass; [5]): 100
Crabgrass, Large plant response rating (large crabgrass; [6]): 20
Plant response rating, Crabgrass, Large (large crabgrass; [7]): 100
Plant response rating, Lambsquarters (lambsquarters; [4]): 90
Lambsquarters plant response rating (lambsquarters; [5]): 100
Lambsquarters plant response rating (lambsquarters; [6]): 90
Plant response rating, Lambsquarters (lambsquarters; [7]): 100
Sedge, Umbrella plant response rating [1]: 80
Plant response rating, Morningglory (morningglory; [4]): 30
Morningglory plant response rating (morningglory; [5]): 30
Morningglory plant response rating (morningglory; [6]): 20
Barnyardgrass plant response rating (barnyardgrass [2]): 80
Plant response rating, Barnyardgrass (barnyardgrass [3]; [4]): 60
Barnyardgrass plant response rating (barnyardgrass [3]; [5]): 100
Barnyardgrass plant response rating (barnyardgrass [3]; [6]): 30
Plant response rating, Barnyardgrass (barnyardgrass [3]; [7]): 90
Plant response rating, Cocklebur (cocklebur; [4]): 100
Cocklebur plant response rating (cocklebur; [5]): 100
Cocklebur plant response rating (cocklebur; [6]): 80
Plant response rating, Cocklebur (cocklebur; [7]): 0
Plant response rating, Wheat (wheat): 20
Wheat plant response rating (wheat): 0
Plant response rating, Corn (corn; [4]): 20
Corn plant response rating (corn; [5]): 30
Corn plant response rating (corn; [6]): 10
Plant response rating, Corn (corn; [7]): 20

CCn1nc(C(C)(C)C)cc1C(=O)Nc1cccc2c1CCN(C1CC1)C2=O [Compound 64]
Plant response rating, Oat, Wild (wild oat): 20
Oat, Wild plant response rating (wild oat): 20
Plant response rating, Pigweed (pigweed; [4]): 50
Pigweed plant response rating (pigweed; [6]): 20
Plant response rating, Pigweed (pigweed; [7]): 100
Plant response rating, Surinam Grass (Surinam grass; [4]): 10
Surinam Grass plant response rating (Surinam grass; [6]): 10
Plant response rating, Surinam Grass (Surinam grass; [7]): 10
Plant response rating, Foxtail, Giant (giant foxtail; [4]): 10
Foxtail, Giant plant response rating (giant foxtail; [5]): 100
Foxtail, Giant plant response rating (giant foxtail; [6]): 10
Plant response rating, Foxtail, Giant (giant foxtail; [7]): 10
Plant response rating, Velvetleaf (velvetleaf; [4]): 10
Velvetleaf plant response rating (velvetleaf; [6]): 10
Plant response rating, Velvetleaf (velvetleaf; [7]): 0
Rice plant response rating (rice): 50
Plant response rating, Crabgrass, Large (large crabgrass; [4]): 10
Crabgrass, Large plant response rating (large crabgrass; [5]): 100
Crabgrass, Large plant response rating (large crabgrass; [6]): 10
Plant response rating, Crabgrass, Large (large crabgrass; [7]): 20
Plant response rating, Lambsquarters (lambsquarters; [4]): 70
Lambsquarters plant response rating (lambsquarters; [6]): 70
Plant response rating, Lambsquarters (lambsquarters; [7]): 60
Sedge, Umbrella plant response rating [1]: 90
Plant response rating, Morningglory (morningglory; [4]): 20
Morningglory plant response rating (morningglory; [6]): 0
Plant response rating, Morningglory (morningglory; [7]): 0
Barnyardgrass plant response rating (barnyardgrass [2]): 30
Plant response rating, Barnyardgrass (barnyardgrass [3]; [4]): 10
Barnyardgrass plant response rating (barnyardgrass [3]; [5]): 90
Barnyardgrass plant response rating (barnyardgrass [3]; [6]): 10
Plant response rating, Barnyardgrass (barnyardgrass [3]; [7]): 50
Plant response rating, Cocklebur (cocklebur; [4]): 50
Cocklebur plant response rating (cocklebur; [5]): 0
Cocklebur plant response rating (cocklebur; [6]): 30
Plant response rating, Cocklebur (cocklebur; [7]): 0
Plant response rating, Wheat (wheat): 10
Wheat plant response rating (wheat): 0
Plant response rating, Corn (corn; [4]): 20
Corn plant response rating (corn; [5]): 0
Corn plant response rating (corn; [6]): 10
Plant response rating, Corn (corn; [7]): 0

CCCN1CCc2c(NC(=O)c3cc(C(C)(C)C)nn3CC)cccc2C1=O [Compound 65]
Plant response rating, Oat, Wild (wild oat): 20
Oat, Wild plant response rating (wild oat): 10
Plant response rating, Pigweed (pigweed; [4]): 60
Pigweed plant response rating (pigweed; [6]): 40
Plant response rating, Pigweed (pigweed; [7]): 90
Plant response rating, Surinam Grass (Surinam grass; [4]): 20
Surinam Grass plant response rating (Surinam grass; [6]): 20
Plant response rating, Surinam Grass (Surinam grass; [7]): 10
Plant response rating, Foxtail, Giant (giant foxtail; [4]): 20
Foxtail, Giant plant response rating (giant foxtail; [5]): 80
Foxtail, Giant plant response rating (giant foxtail; [6]): 10
Plant response rating, Foxtail, Giant (giant foxtail; [7]): 20
Plant response rating, Velvetleaf (velvetleaf; [4]): 10
Velvetleaf plant response rating (velvetleaf; [6]): 10
Plant response rating, Velvetleaf (velvetleaf; [7]): 10
Rice plant response rating (rice): 50
Plant response rating, Crabgrass, Large (large crabgrass; [4]): 20
Crabgrass, Large plant response rating (large crabgrass; [5]): 80
Crabgrass, Large plant response rating (large crabgrass; [6]): 10
Plant response rating, Crabgrass, Large (large crabgrass; [7]): 20
Plant response rating, Lambsquarters (lambsquarters; [4]): 70
Lambsquarters plant response rating (lambsquarters; [6]): 70
Plant response rating, Lambsquarters (lambsquarters; [7]): 80
Sedge, Umbrella plant response rating [1]: 90
Plant response rating, Morningglory (morningglory; [4]): 20
Morningglory plant response rating (morningglory; [6]): 10
Plant response rating, Morningglory (morningglory; [7]): 0
Barnyardgrass plant response rating (barnyardgrass [2]): 80
Plant response rating, Barnyardgrass (barnyardgrass [3]; [4]): 10
Barnyardgrass plant response rating (barnyardgrass [3]; [5]): 90
Barnyardgrass plant response rating (barnyardgrass [3]; [6]): 10
Plant response rating, Barnyardgrass (barnyardgrass [3]; [7]): 50
Plant response rating, Cocklebur (cocklebur; [4]): 80
Cocklebur plant response rating (cocklebur; [5]): 0
Cocklebur plant response rating (cocklebur; [6]): 60
Plant response rating, Cocklebur (cocklebur; [7]): 0
Plant response rating, Wheat (wheat): 10
Wheat plant response rating (wheat): 0
Plant response rating, Corn (corn; [4]): 20
Corn plant response rating (corn; [5]): 10
Corn plant response rating (corn; [6]): 20
Plant response rating, Corn (corn; [7]): 0

CCCCOC(=O)c1cccc(NC(=O)c2cc(C(C)(C)C)nn2CC)c1 [Compound 86]
Plant response rating, Oat, Wild (wild oat): 60
Oat, Wild plant response rating (wild oat): 30
Plant response rating, Pigweed (pigweed; [4]): 100
Pigweed plant response rating (pigweed; [6]): 100
Plant response rating, Pigweed (pigweed; [7]): 0
Plant response rating, Surinam Grass (Surinam grass; [4]): 100
Surinam Grass plant response rating (Surinam grass; [6]): 70
Plant response rating, Surinam Grass (Surinam grass; [7]): 0
Plant response rating, Foxtail, Giant (giant foxtail; [4]): 60
Foxtail, Giant plant response rating (giant foxtail; [5]): 0
Foxtail, Giant plant response rating (giant foxtail; [6]): 40
Plant response rating, Foxtail, Giant (giant foxtail; [7]): 0
Plant response rating, Velvetleaf (velvetleaf; [4]): 70
Velvetleaf plant response rating (velvetleaf; [6]): 60
Plant response rating, Velvetleaf (velvetleaf; [7]): 0
Rice plant response rating (rice): 50
Plant response rating, Crabgrass, Large (large crabgrass; [4]): 90
Crabgrass, Large plant response rating (large crabgrass; [5]): 0
Crabgrass, Large plant response rating (large crabgrass; [6]): 60
Plant response rating, Crabgrass, Large (large crabgrass; [7]): 0
Plant response rating, Lambsquarters (lambsquarters; [4]): 90
Lambsquarters plant response rating (lambsquarters; [6]): 80
Plant response rating, Lambsquarters (lambsquarters; [7]): 0
Sedge, Umbrella plant response rating [1]: 70
Plant response rating, Morningglory (morningglory; [4]): 100
Morningglory plant response rating (morningglory; [6]): 60
Plant response rating, Morningglory (morningglory; [7]): 0
Barnyardgrass plant response rating (barnyardgrass [2]): 30
Plant response rating, Barnyardgrass (barnyardgrass [3]; [4]): 80
Barnyardgrass plant response rating (barnyardgrass [3]; [5]): 0
Barnyardgrass plant response rating (barnyardgrass [3]; [6]): 50
Plant response rating, Barnyardgrass (barnyardgrass [3]; [7]): 0
Plant response rating, Cocklebur (cocklebur; [4]): 100
Cocklebur plant response rating (cocklebur; [5]): 0
Cocklebur plant response rating (cocklebur; [6]): 20
Plant response rating, Cocklebur (cocklebur; [7]): 0
Plant response rating, Wheat (wheat): 40
Wheat plant response rating (wheat): 30
Plant response rating, Corn (corn; [4]): 30
Corn plant response rating (corn; [5]): 0
Corn plant response rating (corn; [6]): 20
Plant response rating, Corn (corn; [7]): 0
